From patent US10907212B2, “Inhibitors of cell adhesion” (Regents of the University of Minnesota, priority 2016, dated 2021)
Entries after “also recorded” stand apart in the source; their conditions may differ. Where no end group is shown, it is not given here.

Legend:
[1] = system: nectin 4 protein on NIH:OVCAR-5 cells; assay: Effect of peptides on anti-Nectin-4 antibody binding to cells as determined by flow cytometry; format: cell-based, human; settings: for IgG MFI: IgG control primary antibody; for nectin-4 antibody binding compared to untreated control cells (in words): flow cytometry; for Flow binding: summary table, Nectin-4 antibody binding relative to control = 100
Experimental: Confluent monolayers of cells were detached from 75 cm^2 tissue culture flasks using Accutase cell dissociation buffer (Innovative Cell Technologies, San Diego, Calif.), washed, and labeled with mouse IgG or mAbs against Nectin-4 or Nectin-1 (2.5 μg/10^6 cells) in Flow Buffer [phosphate buffered saline (PBS) containing 2.5% newborn calf serum and 0.02% sodium azide] for 30 min at 4° C.. Cells were washed and incubated with goat anti-mouse IgG F(ab′)2 (Jackson ImmunoResearch, West Grove, Pa.), then washed again and incubated with streptavidin-allophycocyanin conjugate (Jackson ImmunoResearch, West Grove, Pa.) for 30 min each. Cells were washed and fixed in Flow Buffer containing 1% formaldehyde and analyzed in the University of Minnesota Flow Cytometry Resource with a BD Accuri™ C6 flow cytometer (BD Biosciences, San Jose, Calif.) using the Accuri™ software.
Briefly, NIH:OVCAR-5 cells that natively express a moderate amount of nectin 4 protein were incubated for 30 minutes in 150 μg/mL of soluble peptide in DMSO. After incubation, the cells were washed, and then triple antibody stained using mouse anti-nectin 4 (or IgG control) primary antibody, biotinylated goat anti-mouse secondary antibody, and streptavidin APC tertiary antibody. Finally, utilizing the University of Minnesota flow core's Accuri C6 flow cytometer, the relative antibody binding affinity for control and peptide-treated samples was quantitated and compared. Data was collected for each of the 57 peptides generated.

[2] = system: ovarian cancer cell aggregation and spheroid formation; assay: Spheroid assay for peptides (visual scale +1 to +5); format: cell-based, human; settings: for Spheroid-24: 24 hrs, Control = 2; for Spheroid-24 / Spheroid-48: visual scale of +1 to +5; for Spheroid-48: 48 hrs, Control = 4
Experimental: Spheroids were formed from the NIH:OVCAR5 cell lines described above using the liquid overlay method. One milliliter of a single cell suspension was seeded at a concentration of 50,000 cells/ml in OptiMEM® media, into 24-well tissue culture plates coated with 0.5% Seakem agarose (in complete RPMI-1640). Plates were incubated at 37° C. in a humidified incubator with 5% CO2. At various time points up to 5 days, the plates were removed from the incubator and the spheroids were photographed with a Nikon CoolPix digital camera mounted on an Olympus CK2 inverted microscope with a 4× objective. The size of the spheroids was determined using the measure tool in Adobe Photoshop. The largest spheroids were quantified (20-90 spheroids/well), in a minimum of 8 wells, for a total of >300 spheroids per cell type.
The clinical relevance is that by blocking the formation of spheroids, the cells will be more sensitive to chemotherapy (which targets the single cells that proliferate more rapidly than spheroids).
The spheroid assay for peptides 1-30 were scored using a visual scale of +1 to +5. The controls were scored at +2 (24 hrs) and +4 (48 hrs). […] It may be harder to visually assess the size at 24 hours, since the spheroids are relatively small, but and perhaps some of the peptides are affecting cell division, and that is why the spheroids are smaller than the controls at 48 hours, but not 24 hrs (this can be easily assayed with an MTT assay).

[3] = Run One, 150 μg/mL peptide, 30 minutes, Control 1 = 15,015
[4] = Run One, 150 μg/mL peptide, 30 minutes, Control 1 = 1,670
[5] = Run One, antibody binding relative to Control 1 = 100.00
[6] = Run Three, 150 μg/mL peptide, 30 minutes, Control 3 = 13,070.20
[7] = Run Three, antibody binding relative to Control 3 = 100.00
[8] = Run Four, 150 μg/mL peptide, 30 minutes, Control 4 = 9,631.58
[9] = Run Four, Control 4 = 9.387504873
[10] = Run Four, antibody binding relative to Control 4 = 100

Substance | N4 MFI [1, 3] | IgG MFI [1, 4] | N4 MFI/IgG MFI ([1]; Run One, Control 1 = 8.99) | nectin-4 antibody binding, percent of control [1, 5] | Spheroid-24 [2] | Spheroid-48 [2] | nectin-4 antibody binding compared to untreated control cells (in words) ([1]; 150 μg/mL peptide) | Flow binding [1] [%] | other results
EVKGTTSSRSFKHS-NH2 (listed as Homo sapiens) [Peptide 14] | 13,217 | 3,125 | 4.23 | 75.62 | 1 | 2 |  |  | 
FANPLPSVKITQVTW-NH2 (listed as Homo sapiens) [Peptide 32] |  |  |  |  |  | 2 | reduction in nectin-4 antibody binding | 13 | N4 MFI [1, 6]: 2,542.31; N4 MFI/IgG MFI ([1]; Run Three, Control 3 = 9.83): 2.47; IgG MFI ([1]; Run Three, Control 3 = 1330): 1029; nectin-4 antibody binding, percent of control [1, 7]: 12.89
GQDDKVLVATCTSANG-NH2 (listed as Homo sapiens) [Peptide 41] |  |  |  |  | 3 |  |  |  | N4 MFI [1, 8]: 9,040.73; N4 MFI/IgG MFI [1, 9]: 8.302; IgG MFI ([1]; Run Four, Control 4 = 1,026): 1,089; nectin-4 antibody binding, percent of control [1, 10]: 92.4
HGRRAGPVPTA-NH2 (listed as Homo sapiens) [Peptide 56] |  |  |  |  |  | 3 |  |  | N4 MFI ([1]; Run Five, 150 μg/mL peptide, 30 minutes, Control 5 = 17,768.90): 21,060.14; N4 MFI/IgG MFI ([1]; Run Five, Control 5 = 2.142155332): 2.035; IgG MFI ([1]; Run Five, Control 5 = 8,294.87): 10,346.61; nectin-4 antibody binding, percent of control ([1]; Run Five, antibody binding relative to Control 5 = 100): 113.1
HSQVVQVNDSMYGF-NH2 (listed as Homo sapiens) [Peptide 30] |  |  |  |  |  | 3 | erroneous/outlier due to solubility issues | 321 | N4 MFI ([1]; Run Two, 150 μg/mL peptide, 30 minutes, Control 2 = 49,491): 205,442; N4 MFI/IgG MFI ([1]; Run Two, Control 2 = 9.46): 3.24; IgG MFI ([1]; Run Two, Control 2 = 5,233): 63,394; nectin-4 antibody binding, percent of control ([1]; Run Two, antibody binding relative to Control 2 = 100.00): 320.95
HSRSAAVTSEFHLV-NH2 (listed as Homo sapiens) [Peptide 15] | 7,980 | 2,158 | 3.70 | 43.63 | 1 | 2 | reduction in nectin-4 antibody binding; also recorded: reduced antibody binding | 44 | spheroid size (in words) [2]: reduced spheroid size
ICEFATFPTGNRES-NH2 (listed as Homo sapiens) [Peptide 38] |  |  |  |  | 1 | 3 |  |  | N4 MFI [1, 6]: 12,128.26; N4 MFI/IgG MFI ([1]; Run Three, Control 3 = 9.83): 7.73; IgG MFI ([1]; Run Three, Control 3 = 1330): 1568; nectin-4 antibody binding, percent of control [1, 7]: 89.95
LPSLNPGPALEEGQ-NH2 (listed as Homo sapiens) [Peptide 11] | 15,211 | 2,268 | 6.71 | 96.99 | ~1? | 3 |  |  | 
LRNAVQADEGEYEC-NH2 (listed as Homo sapiens) [Peptide 8] | 20,015 | 1,670 | 11.99 | 137.47 | 3 |  | increased the binding of the Nectin-4 antibody to cells | 137 | spheroid size relative to the control (in words) ([2]; at 24 hrs): slightly larger spheroid size
LVPSREAHQQSLAC-NH2 (listed as Homo sapiens) [Peptide 45] |  |  |  |  | 3 |  |  |  | N4 MFI [1, 8]: 9,868.29; N4 MFI/IgG MFI [1, 9]: 9.646; IgG MFI ([1]; Run Four, Control 4 = 1,026): 1023; nectin-4 antibody binding, percent of control [1, 10]: 102.8
